What was measured:
Assay in all cases: KINOMEscan competition binding
Conditions in all cases: compound 10.0 µM
PTK6 (human) = PTK6 (human) (UniProt Q13882)
NEK7 (human) = NEK7 (human) (UniProt Q8TDX7)
ADCK4 (human) = ADCK4 (human) (UniProt Q96D53)
[1] = system: ABL1 (human), P00519 [F317L]
CAMK4 (human) = CAMK4 (human) (UniProt Q16566)
ADCK3 (human) = ADCK3 (human) (UniProt Q8NI60)
ZAP70 (human) = ZAP70 (human) (UniProt P43403)
TSSK1B (human) = TSSK1B (human) (UniProt Q9BXA7)
PRKG1 (human) = PRKG1 (human) (UniProt Q13976)
TNNI3K (human) = TNNI3K (human) (UniProt Q59H18)
MAPK3 (human) = MAPK3 (human) (UniProt P27361)
NTRK1 (human) = NTRK1 (human) (UniProt P04629)
MAP2K6 (human) = MAP2K6 (human) (UniProt P52564)
CHEK2 (human) = CHEK2 (human) (UniProt O96017)
AXL (human) = AXL (human) (UniProt P30530)
INSR (human) = INSR (human) (UniProt P06213)
PAK3 (human) = PAK3 (human) (UniProt O75914)
FGFR1 (human) = FGFR1 (human) (UniProt P11362)
RIPK1 (human) = RIPK1 (human) (UniProt Q13546)
MAPK10 (human) = MAPK10 (human) (UniProt P53779)
MAPK12 (human) = MAPK12 (human) (UniProt P53778)
[2] = system: ABL1 (human), P00519 [Q252H]
RET (human) = RET (human) (UniProt P07949)
MARK1 (human) = MARK1 (human) (UniProt Q9P0L2)
ACVR1B (human) = ACVR1B (human) (UniProt P36896)
EPHB3 (human) = EPHB3 (human) (UniProt P54753)
MARK3 (human) = MARK3 (human) (UniProt P27448)
PRKACB (human) = PRKACB (human) (UniProt P22694)
CDK3 (human) = CDK3 (human) (UniProt Q00526)
PLK1 (human) = PLK1 (human) (UniProt P53350)
[3] = system: ABL1 (human), P00519 [E255K]
TXK (human) = TXK (human) (UniProt P42681)
[4] = system: ABL1 (human), P00519 [F317I]
PIK3CB (human) = PIK3CB (human) (UniProt P42338)
MYO3B (human) = MYO3B (human) (UniProt Q8WXR4)
MAPK6 (human) = MAPK6 (human) (UniProt Q16659)
CDK11A (human) = CDK11A (human) (UniProt Q9UQ88)
LIMK1 (human) = LIMK1 (human) (UniProt P53667)
BMPR2 (human) = BMPR2 (human) (UniProt Q13873)
FYN (human) = FYN (human) (UniProt P06241)
IRAK3 (human) = IRAK3 (human) (UniProt Q9Y616)
MAPK1 (human) = MAPK1 (human) (UniProt P28482)
LCK (human) = LCK (human) (UniProt P06239)

Sequence of RIPK1 (human) (Q13546 whole entry, looked up): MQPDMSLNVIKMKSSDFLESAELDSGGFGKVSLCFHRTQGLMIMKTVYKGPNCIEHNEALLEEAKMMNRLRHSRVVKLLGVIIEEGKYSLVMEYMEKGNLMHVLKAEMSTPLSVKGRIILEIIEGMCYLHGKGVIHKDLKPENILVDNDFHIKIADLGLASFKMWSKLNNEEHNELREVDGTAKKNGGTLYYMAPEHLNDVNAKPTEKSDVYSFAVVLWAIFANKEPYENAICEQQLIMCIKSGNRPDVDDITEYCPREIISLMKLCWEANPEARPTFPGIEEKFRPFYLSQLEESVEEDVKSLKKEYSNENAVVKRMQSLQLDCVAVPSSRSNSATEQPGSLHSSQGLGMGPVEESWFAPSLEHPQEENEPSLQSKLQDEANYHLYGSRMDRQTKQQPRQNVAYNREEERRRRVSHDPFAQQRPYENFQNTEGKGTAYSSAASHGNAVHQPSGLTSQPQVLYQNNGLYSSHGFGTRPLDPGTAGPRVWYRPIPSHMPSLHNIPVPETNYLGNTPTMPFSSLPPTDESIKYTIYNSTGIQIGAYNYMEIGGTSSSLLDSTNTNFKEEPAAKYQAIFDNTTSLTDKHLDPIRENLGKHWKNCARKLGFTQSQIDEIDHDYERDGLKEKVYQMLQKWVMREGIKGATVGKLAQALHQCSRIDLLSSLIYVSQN
Sequence of ADCK3 (human) (Q8NI60 whole entry, looked up): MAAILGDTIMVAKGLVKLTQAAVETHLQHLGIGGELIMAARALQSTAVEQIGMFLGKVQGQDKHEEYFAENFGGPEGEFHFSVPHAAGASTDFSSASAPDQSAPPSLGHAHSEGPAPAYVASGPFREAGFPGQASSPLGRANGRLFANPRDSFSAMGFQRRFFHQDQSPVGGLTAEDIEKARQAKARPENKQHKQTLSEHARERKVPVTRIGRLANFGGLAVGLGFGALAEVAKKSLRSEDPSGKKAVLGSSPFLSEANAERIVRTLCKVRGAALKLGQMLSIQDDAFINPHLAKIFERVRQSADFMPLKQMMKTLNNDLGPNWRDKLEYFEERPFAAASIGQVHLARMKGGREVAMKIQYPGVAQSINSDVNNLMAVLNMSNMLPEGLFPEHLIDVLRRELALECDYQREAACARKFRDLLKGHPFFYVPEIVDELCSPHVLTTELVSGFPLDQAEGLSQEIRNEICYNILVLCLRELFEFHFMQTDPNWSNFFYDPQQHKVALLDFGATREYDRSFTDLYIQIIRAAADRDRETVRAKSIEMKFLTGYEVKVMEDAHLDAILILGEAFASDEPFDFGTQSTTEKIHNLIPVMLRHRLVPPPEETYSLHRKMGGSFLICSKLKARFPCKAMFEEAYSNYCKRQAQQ
Sequence of AXL (human) (P30530 whole entry, looked up): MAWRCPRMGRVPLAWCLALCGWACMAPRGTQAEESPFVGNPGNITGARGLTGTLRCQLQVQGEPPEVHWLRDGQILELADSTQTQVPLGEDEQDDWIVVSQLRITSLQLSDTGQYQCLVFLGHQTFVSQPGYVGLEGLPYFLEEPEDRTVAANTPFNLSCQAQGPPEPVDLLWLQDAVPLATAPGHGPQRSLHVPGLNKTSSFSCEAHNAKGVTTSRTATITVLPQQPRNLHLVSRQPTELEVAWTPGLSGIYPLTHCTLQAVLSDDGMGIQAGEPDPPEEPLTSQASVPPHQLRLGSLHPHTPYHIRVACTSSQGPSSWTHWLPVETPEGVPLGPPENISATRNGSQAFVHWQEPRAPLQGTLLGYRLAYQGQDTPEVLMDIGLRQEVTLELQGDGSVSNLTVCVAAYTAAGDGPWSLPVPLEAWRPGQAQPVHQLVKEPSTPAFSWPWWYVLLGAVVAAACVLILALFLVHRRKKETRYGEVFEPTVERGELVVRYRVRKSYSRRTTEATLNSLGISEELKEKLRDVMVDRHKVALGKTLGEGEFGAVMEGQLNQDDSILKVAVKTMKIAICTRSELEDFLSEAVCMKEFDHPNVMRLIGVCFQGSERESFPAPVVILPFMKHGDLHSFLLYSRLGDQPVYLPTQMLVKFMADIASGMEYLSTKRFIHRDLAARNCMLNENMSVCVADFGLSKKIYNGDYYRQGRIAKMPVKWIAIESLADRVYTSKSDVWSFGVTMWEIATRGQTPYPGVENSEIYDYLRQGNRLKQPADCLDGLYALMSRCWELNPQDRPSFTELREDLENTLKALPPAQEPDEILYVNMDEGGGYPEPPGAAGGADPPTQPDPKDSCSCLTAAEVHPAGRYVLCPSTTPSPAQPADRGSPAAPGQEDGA
Sequence of MAPK1 (human) (P28482 whole entry, looked up): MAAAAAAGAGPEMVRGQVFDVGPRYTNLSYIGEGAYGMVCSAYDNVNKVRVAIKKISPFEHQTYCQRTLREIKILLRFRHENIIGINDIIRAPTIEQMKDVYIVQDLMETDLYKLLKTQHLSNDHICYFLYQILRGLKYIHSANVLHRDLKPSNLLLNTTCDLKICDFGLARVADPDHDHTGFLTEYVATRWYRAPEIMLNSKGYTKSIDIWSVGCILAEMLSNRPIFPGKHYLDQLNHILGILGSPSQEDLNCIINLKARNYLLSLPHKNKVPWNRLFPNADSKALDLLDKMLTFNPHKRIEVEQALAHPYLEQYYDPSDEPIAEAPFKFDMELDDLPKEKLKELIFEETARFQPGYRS
Sequence of MYO3B (human) (Q8WXR4 whole entry, looked up): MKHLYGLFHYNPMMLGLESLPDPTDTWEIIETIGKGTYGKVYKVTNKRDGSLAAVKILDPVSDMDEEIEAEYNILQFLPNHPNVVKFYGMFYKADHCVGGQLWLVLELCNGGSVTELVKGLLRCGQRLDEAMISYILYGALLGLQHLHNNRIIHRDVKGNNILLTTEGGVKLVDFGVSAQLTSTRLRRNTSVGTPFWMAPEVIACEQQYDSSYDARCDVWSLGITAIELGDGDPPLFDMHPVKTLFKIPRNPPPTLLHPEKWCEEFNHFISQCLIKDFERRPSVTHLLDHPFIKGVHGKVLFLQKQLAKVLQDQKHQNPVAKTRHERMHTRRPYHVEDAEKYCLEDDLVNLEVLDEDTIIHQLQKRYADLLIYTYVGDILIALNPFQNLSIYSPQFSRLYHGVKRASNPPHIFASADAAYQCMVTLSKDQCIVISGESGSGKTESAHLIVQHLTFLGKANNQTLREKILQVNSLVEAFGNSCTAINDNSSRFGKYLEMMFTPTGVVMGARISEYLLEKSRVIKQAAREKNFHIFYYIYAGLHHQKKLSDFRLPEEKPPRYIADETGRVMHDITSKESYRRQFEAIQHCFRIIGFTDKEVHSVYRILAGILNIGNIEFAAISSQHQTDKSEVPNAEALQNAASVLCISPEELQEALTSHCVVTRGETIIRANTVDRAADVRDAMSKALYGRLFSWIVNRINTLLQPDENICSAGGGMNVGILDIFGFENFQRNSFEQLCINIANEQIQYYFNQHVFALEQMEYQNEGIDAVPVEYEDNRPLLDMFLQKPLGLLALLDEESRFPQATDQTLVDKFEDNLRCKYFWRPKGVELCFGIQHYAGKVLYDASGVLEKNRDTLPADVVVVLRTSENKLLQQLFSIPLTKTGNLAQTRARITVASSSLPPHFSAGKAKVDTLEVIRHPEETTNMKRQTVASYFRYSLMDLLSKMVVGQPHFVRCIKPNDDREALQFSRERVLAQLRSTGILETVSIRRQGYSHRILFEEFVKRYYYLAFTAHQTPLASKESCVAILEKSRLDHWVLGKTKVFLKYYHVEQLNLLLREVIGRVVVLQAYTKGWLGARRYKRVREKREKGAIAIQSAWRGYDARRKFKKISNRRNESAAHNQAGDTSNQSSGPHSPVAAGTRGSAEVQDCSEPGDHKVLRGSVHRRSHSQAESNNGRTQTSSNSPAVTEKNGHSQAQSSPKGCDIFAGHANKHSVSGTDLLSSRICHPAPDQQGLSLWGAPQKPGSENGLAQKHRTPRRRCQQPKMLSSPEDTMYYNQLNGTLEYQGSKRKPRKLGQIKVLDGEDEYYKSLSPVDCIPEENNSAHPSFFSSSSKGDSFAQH
Sequence of MAPK6 (human) (Q16659 whole entry, looked up): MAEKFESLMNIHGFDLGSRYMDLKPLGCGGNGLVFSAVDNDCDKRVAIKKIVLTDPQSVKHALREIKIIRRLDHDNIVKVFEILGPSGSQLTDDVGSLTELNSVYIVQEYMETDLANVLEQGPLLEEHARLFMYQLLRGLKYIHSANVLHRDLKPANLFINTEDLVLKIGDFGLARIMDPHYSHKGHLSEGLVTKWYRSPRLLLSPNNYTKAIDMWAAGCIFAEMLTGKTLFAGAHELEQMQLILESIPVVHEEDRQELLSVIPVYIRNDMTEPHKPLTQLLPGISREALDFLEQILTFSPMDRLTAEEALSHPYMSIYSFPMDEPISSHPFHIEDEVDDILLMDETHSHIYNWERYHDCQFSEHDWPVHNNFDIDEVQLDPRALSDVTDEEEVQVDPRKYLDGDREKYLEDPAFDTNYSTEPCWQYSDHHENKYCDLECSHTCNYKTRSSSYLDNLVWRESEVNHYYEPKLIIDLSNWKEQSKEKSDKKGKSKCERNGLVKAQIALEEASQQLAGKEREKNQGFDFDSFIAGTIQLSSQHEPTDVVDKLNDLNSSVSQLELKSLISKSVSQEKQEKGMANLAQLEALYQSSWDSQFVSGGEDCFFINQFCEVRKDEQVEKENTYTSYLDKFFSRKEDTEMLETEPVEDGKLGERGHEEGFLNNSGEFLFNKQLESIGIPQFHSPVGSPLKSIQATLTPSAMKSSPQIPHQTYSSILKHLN
Sequence of NEK7 (human) (Q8TDX7 whole entry, looked up): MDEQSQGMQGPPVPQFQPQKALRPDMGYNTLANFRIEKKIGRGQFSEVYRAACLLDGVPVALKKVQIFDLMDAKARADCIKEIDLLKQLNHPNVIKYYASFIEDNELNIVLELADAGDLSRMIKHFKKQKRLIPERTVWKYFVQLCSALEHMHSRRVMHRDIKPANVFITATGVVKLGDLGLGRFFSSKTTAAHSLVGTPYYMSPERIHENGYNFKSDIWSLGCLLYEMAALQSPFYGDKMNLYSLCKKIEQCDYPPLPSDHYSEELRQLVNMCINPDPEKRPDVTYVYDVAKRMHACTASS

- kinase still bound, per cent of control (PTK6 (human)): 83%
- kinase still bound, per cent of control (NEK7 (human)): 100%
- kinase still bound, per cent of control (ADCK4 (human)): 80%
- kinase still bound, per cent of control [1]: 66%
- kinase still bound, per cent of control (CAMK4 (human)): 100%
- kinase still bound, per cent of control (ADCK3 (human)): 76%
- kinase still bound, per cent of control (ZAP70 (human)): 61%
- kinase still bound, per cent of control (TSSK1B (human)): 2.9%
- kinase still bound, per cent of control (PRKG1 (human)): 100%
- kinase still bound, per cent of control (TNNI3K (human)): 96%
- kinase still bound, per cent of control (MAPK3 (human)): 94%
- kinase still bound, per cent of control (NTRK1 (human)): 78%
- kinase still bound, per cent of control (MAP2K6 (human)): 100%
- kinase still bound, per cent of control (CHEK2 (human)): 70%
- kinase still bound, per cent of control (AXL (human)): 24%
- kinase still bound, per cent of control (INSR (human)): 54%
- kinase still bound, per cent of control (PAK3 (human)): 86%
- kinase still bound, per cent of control (FGFR1 (human)): 100%
- kinase still bound, per cent of control (RIPK1 (human)): 82%
- kinase still bound, per cent of control (MAPK10 (human)): 77%
- kinase still bound, per cent of control (MAPK12 (human)): 60%
- kinase still bound, per cent of control [2]: 53%
- kinase still bound, per cent of control (RET (human)): 70%
- kinase still bound, per cent of control (MARK1 (human)): 100%
- kinase still bound, per cent of control (ACVR1B (human)): 80%
- kinase still bound, per cent of control (EPHB3 (human)): 91%
- kinase still bound, per cent of control (MARK3 (human)): 100%
- kinase still bound, per cent of control (PRKACB (human)): 100%
- kinase still bound, per cent of control (CDK3 (human)): 100%
- kinase still bound, per cent of control (PLK1 (human)): 46%
- kinase still bound, per cent of control [3]: 94%
- kinase still bound, per cent of control (TXK (human)): 80%
- kinase still bound, per cent of control [4]: 100%
- kinase still bound, per cent of control (PIK3CB (human)): 4.8%
- kinase still bound, per cent of control (MYO3B (human)): 74%
- kinase still bound, per cent of control (MAPK6 (human)): 93%
- kinase still bound, per cent of control (CDK11A (human)): 63%
- kinase still bound, per cent of control (LIMK1 (human)): 94%
- kinase still bound, per cent of control (BMPR2 (human)): 19%
- kinase still bound, per cent of control (FYN (human)): 92%
- kinase still bound, per cent of control (IRAK3 (human)): 100%
- kinase still bound, per cent of control (MAPK1 (human)): 97%
- kinase still bound, per cent of control (LCK (human)): 100%
Compound: O=C1NC(=O)/C(=C/c2c[nH]c(=O)c(-c3ccc(N4CCNCC4)nc3)c2)S1

Source: the kinase profiling compilation of Christmann-Franck et al. (2016)
